# Measurements as given in ChEMBL document CHEMBL1136253 (Bioorg Med Chem Lett, 2003).
# Target: T1, Corticotropin-releasing factor receptor 1 (Homo sapiens, UniProt P34998)
# T1 sequence (P34998 whole entry): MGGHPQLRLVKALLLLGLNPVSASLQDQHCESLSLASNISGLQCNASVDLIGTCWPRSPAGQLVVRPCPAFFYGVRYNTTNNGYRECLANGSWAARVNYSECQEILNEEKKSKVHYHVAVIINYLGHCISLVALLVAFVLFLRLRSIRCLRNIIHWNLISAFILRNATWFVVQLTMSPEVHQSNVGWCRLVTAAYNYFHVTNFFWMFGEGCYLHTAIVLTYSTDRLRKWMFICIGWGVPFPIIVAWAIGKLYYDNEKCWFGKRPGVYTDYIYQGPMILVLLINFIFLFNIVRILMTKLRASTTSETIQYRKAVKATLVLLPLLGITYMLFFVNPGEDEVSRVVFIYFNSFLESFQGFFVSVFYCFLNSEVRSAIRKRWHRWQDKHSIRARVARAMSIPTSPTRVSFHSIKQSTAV
# Assay: Inhibition of Corticotropin releasing factor receptor 1-stimulated cAMP production
# Type: functional
row,IC50 [nM],Compound
1,15,CCN(CCOC)c1cc(C)nc2c(-c3ccc(Cl)cc3Cl)nn(C)c12
2,5,CCCCN(CCCC)c1cc(C)nc2c(-c3ccc(Cl)cc3Cl)nn(C)c12
3,36,CCCN(CCOC)c1cc(C)nc2c(-c3ccc(Cl)cc3Cl)nn(C)c12
4,38,COCCN(CCOC)c1cc(C)nc2c(-c3ccc(Cl)cc3Cl)nn(C)c12
5,18,CCCN(CCO)c1cc(C)nc2c(-c3ccc(Cl)cc3Cl)nn(C)c12
6,3,CCCCN(CC1CC1)c1cc(C)nc2c(-c3ccc(Cl)cc3Cl)nn(C)c12

# Target: T1, Corticotropin-releasing factor receptor 1
# Assay: Binding affinity towards Corticotropin releasing factor receptor 1 was measured through displacement of [125I]sauvagine expressed in HEK293 cells
# Type: cell-based
row,Ki [nM],Compound
1,4,CCCCCCN(CCOC)c1cc(C)nc2c(-c3ccc(Cl)cc3Cl)nn(C)c12
2,62,CCCC(CO)Nc1cc(C)nc2c(-c3ccc(Cl)cc3Cl)nn(C)c12 (stereo unspecified)
3,32,COCCN(C)c1cc(C)nc2c(-c3ccc(Cl)cc3Cl)nn(C)c12
4,4.1,CCCN(CC)c1cc(C)nc2c(-c3ccc(Cl)cc3Cl)nn(C)c12
5,9.8,CCCN(CCCOC)c1cc(C)nc2c(-c3ccc(Cl)cc3Cl)nn(C)c12
6,1.4,CCCCN(CCSC)c1cc(C)nc2c(-c3ccc(Cl)cc3Cl)nn(C)c12
7,5.1,CCCCN(CCCC)c1cc(C)nc2c(-c3c(C)cc(C)cc3C)nn(C)c12
8,170,CCCCNc1cc(C)nc2c(-c3ccc(Cl)cc3Cl)nn(C)c12
9,3.2,CCN(CCOC)c1cc(C)nc2c(-c3ccc(Cl)cc3Cl)nn(C)c12
10,6.7,CCCCCN(CCOC)c1cc(C)nc2c(-c3ccc(Cl)cc3Cl)nn(C)c12
11,340,CCCCN(CCCC)c1cc(C)nc2c(-c3ccc(Cl)cc3)nn(C)c12
12,3.7,Cc1cc(N(CC(C)C)CC2CC2)c2c(n1)c(-c1ccc(Cl)cc1Cl)nn2C
13,1.3,CCCCCN(CC)c1cc(C)nc2c(-c3ccc(Cl)cc3Cl)nn(C)c12
14,2.8,CCCCN(CCCC)c1cc(C)nc2c(-c3ccc(C)cc3Cl)nn(C)c12
15,0.9,CCCCCN(CCCC)c1cc(C)nc2c(-c3ccc(Cl)cc3Cl)nn(C)c12
16,18,CCCCN(CCCOC)c1cc(C)nc2c(-c3ccc(Cl)cc3Cl)nn(C)c12
17,4.8,CCCCN(CCCC)c1cc(C)nc2c(-c3ccc(OC)cc3Cl)nn(C)c12
18,12.5,CCN(CCCOC)c1cc(C)nc2c(-c3ccc(Cl)cc3Cl)nn(C)c12
19,24,CCCN(C)c1cc(C)nc2c(-c3ccc(Cl)cc3Cl)nn(C)c12
20,1,CCCCCCN(CC1CC1)c1cc(C)nc2c(-c3ccc(Cl)cc3Cl)nn(C)c12

row,Ki [nM],Compound
1,5.1,CCCN(CCOC)c1cc(C)nc2c(-c3ccc(Cl)cc3Cl)nn(C)c12
2,13,CCCCN(CCc1ccccn1)c1cc(C)nc2c(-c3ccc(Cl)cc3Cl)nn(C)c12
3,1.2,CCCCCN(CCC)c1cc(C)nc2c(-c3ccc(Cl)cc3Cl)nn(C)c12
4,380,CCCCN(CC1CCCN1C)c1cc(C)nc2c(-c3ccc(Cl)cc3Cl)nn(C)c12 (stereo unspecified)
5,2.1,CCCCN(CCCC)c1cc(C)nc2c(-c3c(C)cc(C)cc3Cl)nn(C)c12
6,10.4,CCCCN(CCOC)c1cc(C)nc2c(-c3ccc(Cl)cc3Cl)nn(C)c12
7,9.7,COCCN(c1cc(C)nc2c(-c3ccc(Cl)cc3Cl)nn(C)c12)C(C)C
8,> 10000,Cc1cc(NCc2ccc(O)cc2)c2c(n1)c(-c1ccc(Cl)cc1Cl)nn2C
9,13,CCCN(Cc1ccc(O)cc1)c1cc(C)nc2c(-c3ccc(Cl)cc3Cl)nn(C)c12
10,8.2,COCCN(CCOC)c1cc(C)nc2c(-c3ccc(Cl)cc3Cl)nn(C)c12
11,1.5,CCCCCN(CC1CC1)c1cc(C)nc2c(-c3ccc(Cl)cc3Cl)nn(C)c12
12,7,CCCCN(c1cc(C)nc2c(-c3ccc(Cl)cc3Cl)nn(C)c12)C(CC)CC
13,11.2,CCCCN(CC1CCCO1)c1cc(C)nc2c(-c3ccc(Cl)cc3Cl)nn(C)c12 (stereo unspecified)
14,4.4,CCCN(CCO)c1cc(C)nc2c(-c3ccc(Cl)cc3Cl)nn(C)c12
15,4.4,CCN(CC1CC1)c1cc(C)nc2c(-c3ccc(Cl)cc3Cl)nn(C)c12
16,34,CCCCN(CCc1ccncc1)c1cc(C)nc2c(-c3ccc(Cl)cc3Cl)nn(C)c12
17,1.3,CCCCN(CC1CC1)c1cc(C)nc2c(-c3ccc(Cl)cc3Cl)nn(C)c12
18,68,CCCCN(Cc1ccncc1)c1cc(C)nc2c(-c3ccc(Cl)cc3Cl)nn(C)c12
19,10.5,COCCN(CC(C)C)c1cc(C)nc2c(-c3ccc(Cl)cc3Cl)nn(C)c12

# Target: T1, Corticotropin-releasing factor receptor 1
# Assay: Inhibition of (Corticotropin-Releasing Factor Receptor) CRF-stimulated cAMP production
# Type: functional
row,IC50 [nM],Compound
1,16,CCCN(CC1CC1)c1cc(C)nc2c(-c3ccc(Cl)cc3Cl)nn(C)c12
